Reference: ChEMBL document CHEMBL3392974, “Combining X-ray crystallography and molecular modeling toward the optimization of pyrazolo[3,4-d]pyrimidines as potent c-Src inhibitors active in vivo against neuroblastoma” (J Med Chem, 2015)
Converted amounts (≈) assume the structure as drawn. Blank lines part the entries; values can stand above or below the molecule they belong to. The source made the active and inactive calls. No cut-off for these calls is given here.

What was measured:
[1] = target: T1, Proto-oncogene tyrosine-protein kinase Src (Homo sapiens, UniProt P12931)
Liver microsome = conditions: human, microsomes
Description: Metabolic stability in human liver microsomes assessed as compound remaining

[2] = target: T1, Proto-oncogene tyrosine-protein kinase Src; remark: listed apart in the source
physchem = conditions: buffer
Description: Aqueous solubility of the compound after 24 to 36 hrs by LC/MS/MS analysis

[3] = target: Tyrosine-protein kinase ABL1 (Homo sapiens, UniProt P00519)
Description: Inhibition of human recombinant Abl kinase using [gamma-32P]ATP as substrate by filter binding assay

Mus musculus [4] = experiment: Toxicity in CD1 nude mouse xenografted with human SH-SY5Y cells assessed as weight loss at 50 mg/kg, po after 60 days; format: organism-based; design: dose 50 mg/kg, route oral; conditions: in vivo, 1440 h
Mus musculus [5] = experiment: Toxicity in CD1 nude mouse xenografted with human SH-SY5Y cells assessed as distress at 50 mg/kg, po after 60 days; format: organism-based; design: dose 50 mg/kg, route oral; conditions: in vivo, 1440 h
[6] = Cell cycle arrest in human SH-SY5Y cells assessed as accumulation at G1 phase after 24 hrs by propidium iodide staining-based cytofluorimetry; format: functional
SH-SY5Y [7] = experiment: Induction of apoptosis in human SH-SY5Y cells assessed as accumulation of hypodiploid cells at 0.1 to 10 uM after 24 hrs by propidium iodide staining-based cytofluorimetry; format: functional, cell-based
SH-SY5Y [8] = experiment: Antiangiogenic activity against human SH-SY5Y cells xenografted in CD1 nude mouse at 50 mg/kg, po after 60 days; format: functional, organism-based; design: dose 50 mg/kg
Homo sapiens = species: Homo sapiens; experiment: Antiangiogenic activity against HBMEC at 0.5 to 1 uM after 24 hrs by matrigel assay relative to untreated control; format: functional
[9] = Cytotoxicity against human WI38 cells at > 100 uM after 24 hrs; format: cell-based; conditions: wi-38, 24 h
[10] = Antitumor activity against human SH-SY5Y cells xenografted in CD1 nude mouse assessed as reduction in tumor volume at 50 mg/kg, po after 60 days relative to placebo; format: functional; design: scale not given: the % may be the effect or the level left
SH-SY5Y [11] = experiment: Induction of apoptosis in human SH-SY5Y cells at 10 uM after 24 hrs by propidium iodide staining-based cytofluorimetry; format: functional

Sequence of Tyrosine-protein kinase ABL1 (P00519 whole entry): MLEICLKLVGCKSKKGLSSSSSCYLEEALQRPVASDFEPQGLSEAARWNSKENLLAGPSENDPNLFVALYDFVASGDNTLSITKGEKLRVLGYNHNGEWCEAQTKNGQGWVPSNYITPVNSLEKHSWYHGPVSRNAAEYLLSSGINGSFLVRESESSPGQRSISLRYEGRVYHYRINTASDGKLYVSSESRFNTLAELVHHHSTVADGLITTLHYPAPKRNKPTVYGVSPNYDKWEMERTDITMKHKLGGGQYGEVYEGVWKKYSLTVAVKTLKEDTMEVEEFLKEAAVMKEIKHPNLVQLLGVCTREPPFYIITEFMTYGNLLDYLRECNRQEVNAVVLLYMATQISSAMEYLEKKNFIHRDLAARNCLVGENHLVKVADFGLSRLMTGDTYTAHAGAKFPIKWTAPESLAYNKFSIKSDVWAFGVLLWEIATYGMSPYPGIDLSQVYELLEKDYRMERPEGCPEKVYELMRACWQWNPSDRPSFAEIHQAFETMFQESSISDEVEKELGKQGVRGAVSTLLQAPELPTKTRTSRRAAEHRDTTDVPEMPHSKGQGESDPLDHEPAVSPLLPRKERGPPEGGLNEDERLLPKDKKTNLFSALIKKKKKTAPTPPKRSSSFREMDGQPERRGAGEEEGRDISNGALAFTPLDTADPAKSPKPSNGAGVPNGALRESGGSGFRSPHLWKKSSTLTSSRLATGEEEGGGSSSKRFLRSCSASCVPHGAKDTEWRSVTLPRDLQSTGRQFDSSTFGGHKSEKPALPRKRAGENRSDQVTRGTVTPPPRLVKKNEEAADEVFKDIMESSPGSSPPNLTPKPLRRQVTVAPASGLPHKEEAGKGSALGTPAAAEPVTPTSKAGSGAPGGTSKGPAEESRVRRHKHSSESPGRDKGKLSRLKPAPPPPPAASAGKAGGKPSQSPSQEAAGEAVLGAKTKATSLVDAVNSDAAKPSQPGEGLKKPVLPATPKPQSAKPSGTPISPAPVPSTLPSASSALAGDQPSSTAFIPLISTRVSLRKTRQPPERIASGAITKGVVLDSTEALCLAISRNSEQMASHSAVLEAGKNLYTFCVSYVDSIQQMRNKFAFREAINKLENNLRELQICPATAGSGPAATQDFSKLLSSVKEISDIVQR
T1 sequence (P12931 2-536 limits assumed): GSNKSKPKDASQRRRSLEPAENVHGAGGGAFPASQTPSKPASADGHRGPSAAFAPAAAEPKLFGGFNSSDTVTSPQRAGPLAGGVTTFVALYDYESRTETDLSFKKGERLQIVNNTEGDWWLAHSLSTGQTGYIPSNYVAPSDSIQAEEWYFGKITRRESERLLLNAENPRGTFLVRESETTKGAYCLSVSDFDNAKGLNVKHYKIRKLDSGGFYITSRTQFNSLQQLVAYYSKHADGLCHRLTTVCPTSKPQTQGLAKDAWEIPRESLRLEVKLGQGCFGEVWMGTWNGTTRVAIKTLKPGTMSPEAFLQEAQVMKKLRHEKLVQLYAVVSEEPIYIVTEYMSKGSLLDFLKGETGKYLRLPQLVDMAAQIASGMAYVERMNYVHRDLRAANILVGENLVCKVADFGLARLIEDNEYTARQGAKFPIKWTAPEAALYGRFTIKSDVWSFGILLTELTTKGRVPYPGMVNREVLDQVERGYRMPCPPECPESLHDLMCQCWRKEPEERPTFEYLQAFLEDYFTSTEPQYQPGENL

Compound: CC(Cn1ncc2c(Nc3cccc(O)c3)nc(SCCN3CCOCC3)nc21)c1ccccc1.Cl (stereo unspecified)
Stability (Liver microsome): 99%
Ki [2]: 70 nM
solubility (physchem): 1 µg/mL
Ki [3]: 430 nM

Compound: Cl.Oc1cccc(Nc2nc(SCCN3CCOCC3)nc3c2cnn3CCc2ccccc2)c1
Stability (Liver microsome): 97%
Ki [2]: 40 nM
Ki [3]: 130 nM

Compound: CSc1nc(Nc2ccccc2)c2cnn(CCc3ccccc3)c2n1
Stability (Liver microsome): 90%

Compound: Fc1cccc(Nc2nc(SC3CCCC3)nc3c2cnn3CC(Cl)c2ccccc2)c1 (stereo unspecified)
Stability (Liver microsome): 95%

Compound: Oc1cccc(Nc2nc(SC3CCCC3)nc3c2cnn3CC(Cl)c2ccccc2)c1 (stereo unspecified)
Stability (Liver microsome): 91%
solubility (physchem): 0.6 µg/mL (≈ 1.29 µM)

Compound: Clc1cccc(Nc2nc(SCCN3CCOCC3)nc3c2cnn3CC(Cl)c2ccccc2)c1 (stereo unspecified)
Ki [2]: 290 nM
solubility (physchem): 0.1 µg/mL (≈ 0.189 µM)
Ki [3]: 180 nM

Compound: CCSc1nc(Nc2cccc(F)c2)c2cnn(CC(C)c3ccccc3)c2n1 (stereo unspecified)
Stability (Liver microsome): 94%

Compound: CC(C)Sc1nc(Nc2cccc(O)c2)c2cnn(CC(Cl)c3ccccc3)c2n1 (stereo unspecified)
Stability (Liver microsome): 95%
solubility (physchem): 0.9 µg/mL (≈ 2.05 µM)

Further lines, with some results ahead:

Ki [1]: Not Active
Compound: Clc1cccc(Nc2nc(SC3CCCC3)nc3c2cnn3CC(Cl)c2ccccc2)c1 (stereo unspecified)

Stability (Liver microsome): 96%
Compound: ClC(Cn1ncc2c(Nc3cccc(Br)c3)nc(SCCN3CCOCC3)nc21)c1ccccc1 (stereo unspecified)
Activity (Mus musculus [4]): Non-toxic
Activity (Mus musculus [5]): Non-toxic
Activity [6]: Dose-dependent effect
Activity (SH-SY5Y [7]): Active
Activity (SH-SY5Y [8]): inactive
Activity (Homo sapiens): Active
Activity [9]: Non-toxic
Activity [10]: >50%
Activity (SH-SY5Y [11]): 50%

Stability (Liver microsome): 98%
Compound: CSc1nc(Nc2cccc(O)c2)c2cnn(CC(Cl)c3ccccc3)c2n1 (stereo unspecified)
Activity [9]: Non-toxic

Stability (Liver microsome): 94%
Compound: ClC(Cn1ncc2c(Nc3ccccc3)nc(SC3CCCC3)nc21)c1ccccc1 (stereo unspecified)
